Assay results: patent US9657047B2, “Crystallization of epirubicin hydrochloride” (MEDAC GESELLSCHAFT FÜR KLINISCHE SPEZIALPRÄPARATE MBH, priority 2011, dated 2017)

Assay: test of thermal stability (storage at 40° C.)
Assay type: physicochemical
Conditions: two weeks and three weeks; for decomposition on storage (thermal stability): crystals stored at 40° C. for one week
Protocol: The produced crystalline epirubicin hydrochloride was subjected to a test of thermal stability. For this purpose, the produced crystals were stored at a temperature of 40° C. for a time period of one week, two weeks, and three weeks. […] Instead, the crystals remained in unchanged form.
The epirubicin hydrochloride produced was subjected to a test of thermal stability. For this purpose, the epirubicin hydrochloride was stored at a temperature of 40° C. for a time period of one week, two weeks, and three weeks. Within this time frame, a thermal decomposition of epirubicin hydrochloride amplified with increasing storage period by two percent respectively was observed.

decomposition on storage (thermal stability)	thermal decomposition amplified with increasing storage period (stored at 40° C. for one week, increase per storage period)	SMILES
no decomposition		COc1cccc2c1C(=O)c1c(O)c3c(c(O)c1C2=O)C[C@@](O)(C(=O)CO)C[C@@H]3O[C@H]1C[C@H](N)[C@@H](O)[C@H](C)O1.Cl [Example 1, epirubicin hydrochloride]
no decomposition		COc1cccc2c1C(=O)c1c(O)c3c(c(O)c1C2=O)C[C@@](O)(C(=O)CO)C[C@@H]3O[C@H]1C[C@H](N)[C@@H](O)[C@H](C)O1.Cl [Example 2, epirubicin hydrochloride]
	two	COc1cccc2c1C(=O)c1c(O)c3c(c(O)c1C2=O)C[C@@](O)(C(=O)CO)C[C@@H]3O[C@H]1C[C@H](N)[C@@H](O)[C@H](C)O1.Cl [Comparison Example 1, epirubicin hydrochloride]
